# Results published in ChEMBL document CHEMBL1125015, “Synthesis and antiarrhythmic activity of 5,11-dihydro[1]benzoxepino[3,4-b]pyridines” (1990).
# Legend:
# [1] = biological target: T1, Muscarinic acetylcholine receptor (Rattus norvegicus) (UniProt P08482+P08483+P08485+P08911+P10980); test: Inhibitory effect on muscarinic acetylcholine receptor binding affinity at a concentration of (10e -6)M; type: protein assay
# [2] = biological target: T1, Muscarinic acetylcholine receptor (Rattus norvegicus); test: Inhibitory effect on muscarinic acetylcholine receptor binding affinity at a concentration of (10e -5)M; type: protein assay
# Mus musculus [3] = organism: Mus musculus; test: Inhibition of chloroform induced ventricular arrhythmia; type: functional, Cardiac ventricle
# Canis familiaris [4] = test: No. of cases tested was measured on ouabain induced ventricular arrhythmia at 5 mg/kg, iv in dogs; 0/2; type: functional, Canis lupus familiaris, Cardiac ventricle
# Canis familiaris [5] = test: Antiarrhythmic activity in ouabain-induced ventricular arrhythmia in dog at compound concentration of 10 mg/kg; type: functional, Canis lupus familiaris, Heart
# Canis familiaris [6] = test: No. of cases tested was measured on ouabain induced ventricular arrhythmia at 5 mg/kg, iv in dogs; 0/1; type: functional, Canis lupus familiaris, Cardiac ventricle
# Canis familiaris [7] = test: No. of cases tested was measured on ouabain induced ventricular arrhythmia at 5 mg/kg, iv in dogs; 1/7; type: functional, Canis lupus familiaris, Cardiac ventricle
# Canis familiaris [8] = test: No. of cases tested was measured on ouabain induced ventricular arrhythmia at 5 mg/kg, iv in dogs; 1/3; type: functional, Canis lupus familiaris, Cardiac ventricle
# Mus musculus [9] = test: Dose (po) required to double the prodrug pupil size; type: functional
# [10] = Ratio of ED100 (Dose po required to double the prodrug pupil size in mice) to that of ED50 (50% inhibition of chloroform induced ventricular arrhythmia in mice); type: functional
# Canis familiaris [11] = test: No. of cases tested was measured on ouabain induced ventricular arrhythmia at 5 mg/kg, iv in dogs; 6/6; type: functional, Canis lupus familiaris, Cardiac ventricle
# Canis familiaris [12] = test: No. of cases tested was measured on ouabain induced ventricular arrhythmia at dose 10mg/Kg, iv; 0/3; type: functional, Canis lupus familiaris, Cardiac ventricle
# Canis familiaris [13] = test: No. of cases tested was measured on ouabain induced ventricular arrhythmia at 5 mg/kg, iv in dogs; 0/4; type: functional, Canis lupus familiaris, Cardiac ventricle
# Canis familiaris [14] = test: No. of cases tested was measured on ouabain induced ventricular arrhythmia at 5 mg/kg, iv in dogs; 2/3; type: functional, Canis lupus familiaris, Cardiac ventricle
# Canis familiaris [15] = test: No. of cases tested was measured on ouabain induced ventricular arrhythmia at 5 mg/kg, iv in dogs; 0/3; type: functional, Canis lupus familiaris, Cardiac ventricle
# Canis familiaris [16] = test: No. of cases tested was measured on ouabain induced ventricular arrhythmia at 5 mg/kg, iv in dogs; 1/4; type: functional, Canis lupus familiaris, Cardiac ventricle
# Mus musculus [17] = organism: Mus musculus; test: Compound was evaluated by measuring the 50% inhibition of chloroform induced ventricular arrhythmia in mice; type: functional; settings: Cardiac ventricle
# Canis familiaris [18] = test: No. of cases tested was measured on ouabain induced ventricular arrhythmia at 5 mg/kg, iv in dogs; 3/6; type: functional, Canis lupus familiaris, Cardiac ventricle
# Canis familiaris [19] = test: No. of cases tested was measured on ouabain induced ventricular arrhythmia at 5 mg/kg, iv in dogs; 3/3; type: functional, Canis lupus familiaris, Cardiac ventricle
# Canis familiaris [20] = test: No. of cases tested was measured on ouabain induced ventricular arrhythmia at dose (10mg/Kg, iv); 0/2; type: functional, Canis lupus familiaris, Cardiac ventricle
# Canis familiaris [21] = test: No. of cases tested was measured on ouabain induced ventricular arrhythmia at 5 mg/kg, iv in dogs; 2/2; type: functional, Canis lupus familiaris, Cardiac ventricle
# [22] = Mus musculus, Cardiac ventricle, read-out: ED50
Structure (SMILES),inhibition [1] [%],inhibition [2] [%],ED50 (Mus musculus [3]; [22]) [mg/kg],No. positive cases/tested (Canis familiaris [4]),other results
CCN1CCCC1CNC1c2cc(OC)ccc2OCc2ncccc21 (stereo in doubt; 26) [listing 1 of 2 here],2,23,–,–,–
COc1ccc2c(c1)C(NCCN(C)C)c1cccnc1CO2 (configuration not stated),3,15,> 100,0,–
CCN(CC)CCNC1c2ccc(OC)cc2OCc2ncccc21 (configuration not stated),14,7,> 100,0,–
COc1ccc2c(c1)C(NCCN1CCOCC1)c1cccnc1CO2 (configuration not stated),0,0,> 100,0,–
"CCN(CC)CCNC1c2cc(OC)ccc2OCc2ncccc21 (single isomer, unassigned; (+))",–,–,–,–,Inhibition (Canis familiaris [5]): 51%
COc1ccc2c(c1)C(NCCN1[C@@H](C)CC[C@@H]1C)c1cccnc1CO2 (some centres not stated),-2,6,100,–,No. positive cases/tested (Canis familiaris [6]): 0
CCN(CC)CC(=O)NC1c2cc(OC)ccc2OCc2ncccc21 (configuration not stated),-3,1,> 100,0,–
CCN(CC)CCNC1c2cc(O)ccc2OCc2ncccc21 (configuration not stated),0,-1,> 100,–,No. positive cases/tested (Canis familiaris [7]): 1
COc1ccc2c(c1)C(NCCN1[C@H](C)CC[C@@H]1C)c1cccnc1CO2 (some centres not stated),3,15,> 100,–,No. positive cases/tested (Canis familiaris [8]): 1
CCN(CC)CCCNC1c2cc(OC)ccc2OCc2ncccc21 (configuration not stated),4,24,50,–,No. positive cases/tested (Canis familiaris [8]): 1
CCN(CC)CCNC1c2cc(OC)ccc2OCc2ncccc21 (configuration not stated) [listing 1 of 2 here],-3,8,–,–,–
CC(C)N(CCC(C(N)=O)(c1ccccc1)c1ccccn1)C(C)C (configuration not stated) [DISOPYRAMIDE],-1,7,35,–,ED100 (Mus musculus [9]): 20 mg/kg; Ratio [10]: 0.6; No. positive cases/tested (Canis familiaris [11]): 6
CCN1CCCC1CNC1c2cc(OC)ccc2OCc2ncccc21 (stereo in doubt; 27) [listing 1 of 2 here],3,25,–,–,–
CCN(CC)CCNC1c2ccccc2OCc2ncccc21 (configuration not stated),–,–,93,–,No. positive cases/tested (Canis familiaris [12]): 0
CCN(CC)CC/C=C1\c2cc(OC)ccc2OCc2ncccc21,3,27,> 100,–,No. positive cases/tested (Canis familiaris [13]): 0
CCN(CC)CC/C=C1\c2ccccc2OCc2ncccc21,6,45,100,–,No. positive cases/tested (Canis familiaris [14]): 2
CCN(CC)CCNC1c2cc(OC(C)C)ccc2OCc2ncccc21 (configuration not stated),3,12,53,0,–
CCN(CC)CCSC1c2cc(OC)ccc2OCc2ncccc21 (configuration not stated),1,20,31,–,No. positive cases/tested (Canis familiaris [15]): 0
CCN(CC)CCNC1c2cc(Cl)ccc2OCc2ncccc21 (configuration not stated),–,–,> 100,–,–
COc1ccc2c(c1)C(NN1CCN(C)CC1)c1cccnc1CO2 (configuration not stated),2,7,> 100,0,–
Cc1cccc(C)c1OCC(C)N (configuration not stated) [MEXILETINE],-1,-3,71,–,Ratio [10]: 1.7

Structure (SMILES),inhibition [1] [%],inhibition [2] [%],ED50 (Mus musculus [3]; [22]) [mg/kg],No. positive cases/tested (Canis familiaris [4]),other results
CCN(CC)CC/C=C1/c2cc(OC)ccc2OCc2ncccc21,5,26,14,–,No. positive cases/tested (Canis familiaris [16]): 1
CCN(CC)CCNC1c2cc(OC)ccc2OCc2ncccc21 (configuration not stated) [listing 2 of 2 here],–,–,–,–,ED100 (Mus musculus [9]): 194 mg/kg; ED50 (Mus musculus [17]): 62 mg/kg; Ratio [10]: 4; No. positive cases/tested (Canis familiaris [18]): 3
COc1ccc2c(c1)C(NCCN(C(C)C)C(C)C)c1cccnc1CO2 (configuration not stated),4,17,> 100,0,–
COc1ccc2c(c1)C(NCCCNC1CCCCC1)c1cccnc1CO2 (configuration not stated),-1,-1,> 100,–,No. positive cases/tested (Canis familiaris [19]): 3
COc1ccc2c(c1)C(NCCN)c1cccnc1CO2 (configuration not stated),-1,5,> 100,0,–
COc1ccc2c(c1)C(N1CCN(C)CC1)c1cccnc1CO2 (configuration not stated),0,11,81,0,–
CCN(CC)CCNC1c2cc(N(C)C)ccc2OCc2ncccc21 (configuration not stated),4,19,> 100,–,No. positive cases/tested (Canis familiaris [20]): 0
CCN(CC)CCNC1c2cc(OC)ccc2OCc2ncccc21 (racemic),–,–,–,–,Inhibition (Canis familiaris [5]): 76%
COc1ccc2c(c1)C(NCCCN(C)C)c1cccnc1CO2 (configuration not stated),1,5,> 100,0,–
CCNCCNC1c2cc(OC)ccc2OCc2ncccc21 (configuration not stated),2,1,> 100,–,No. positive cases/tested (Canis familiaris [15]): 0
CCN(CC)CC/C=C1/c2ccccc2OCc2ncccc21,28,80,> 17,–,No. positive cases/tested (Canis familiaris [21]): 2
COc1ccc2c(c1)C(NCCN1C(C)CCCC1C)c1cccnc1CO2 (configuration not stated),2,11,> 100,–,No. positive cases/tested (Canis familiaris [8]): 1
"CCN(CC)CCNC1c2cc(OC)ccc2OCc2ncccc21 (single isomer, unassigned; (-))",–,–,–,–,Inhibition (Canis familiaris [5]): 94%
CCN(CC)CCNC1c2cccnc2COc2c(OC)cccc21 (configuration not stated),12,37,> 100,0,–
CCN1CCCC1CNC1c2cc(OC)ccc2OCc2ncccc21 (stereo in doubt; 26) [listing 2 of 2 here],–,–,–,0,ED50 (Mus musculus [3]): 61 mg/kg
CCN1CCCC1CNC1c2cc(OC)ccc2OCc2ncccc21 (stereo in doubt; 27) [listing 2 of 2 here],–,–,58,–,No. positive cases/tested (Canis familiaris [8]): 1
CCN(CC)CCNC1c2cc(OC)c(OC)cc2OCc2ncccc21 (configuration not stated),7,2,> 100,0,–
CCN(CC)CCNC1c2cc(F)ccc2OCc2ncccc21 (configuration not stated),–,–,> 100,0,–
CCN(CC)CCNC1c2cc(C)ccc2OCc2ncccc21 (configuration not stated),–,–,> 100,–,–
COc1ccc2c(c1)C(NCCN1CCCC1)c1cccnc1CO2 (configuration not stated),3,12,> 100,–,No. positive cases/tested (Canis familiaris [15]): 0
